Reference: patent US20250250559A1, “METHOD TO ANALYZE AND OPTIMIZE GENE EDITING MODULES AND DELIVERY APPROACHES” (Hoffmann-La Roche Inc., priority 2016, published 2025)
Values joined by “and” are separate entries in the source; they are usually repeats but may differ in a detail not shown here. Identical values can stand only once. “Also recorded” adds a separate entry of the source. Marks after values point to notes of the source that are not given here.

Tests used:
Assay type in all cases: cell-based, human
DPH2 gene [1] = test: DT resistant colony count after DPH2 gene editing; details: DPH2 assay (integr. vs. k.o.); for # of DT resistant colonies (40,000 seeded cells): MCF7, individual samples A-D
Procedure: (§1) MCF7 cells (Brooks, et al. 1973) were originally obtained from ATCC (subsequently propagated in an in-house cell bank) and maintained in RPMI […] medium supplemented with 10% FCS, 2 mM L-Glutamine and penicillin/streptomycin at 37° C. and 85% humidity. For transfection of plasmids harboring gene-editing modules, 3,000,000 cells were seeded in a 10 cm diameter culture dish and cultivated at 37° C. and humidified 5% CO2. 24 h after seeding, cells were transfected with 20 μg total DNA using JetPEI (Polyplus) according to the manufacturer's protocol but with an N/P ratio of 6:1. Transfection efficiency was determined after 24 h by flow cytometry (FACS Calibur, BD biosciences) of cells that were transfected with a modified eGFP expression plasmid (Zhang, et al. 1996).
(§2) Plasmids encoding CRISPR/Cas9 gene-editing entities (i.e. knock-out and integration systems) against Dph1 (gRNA target sequence: […] (SEQ ID NO: 01) derived from RefSeq: NM_001383) and Dph2 (gRNA target sequence: […] (SEQ ID NO: 02) derived from RefSeq: NM_001039589, NM_001384), and scrambled control (gRNA sequence: […] (SEQ ID NO: 03)) were obtained from OriGene. This system comprises one plasmid expressing a ˜100 nt gRNA under control of a U6 promoter as well as Cas9 nuclease under control of a CMV promoter and a Donor plasmid with a promoter-less GFP/PM expression cassette flanked by homologous arms to the target gene (Dph1 or Dph2). Additional Dph1 gRNA sequence variants of different sizes (OriGene) […]
(§3) MCF7 cells which have all chromosomal copies of DPH1 or DPH2 inactivated are resistant to diphtheria toxin (Stahl, et al. 2015). Thus, occurrence and frequency of toxin resistant cells/colonies upon CRISPR/Cas inflicted gene inactivation provides a measure for efficiency of inactivation of all gene copies. Therefore, MCF/cells were transfected as described in Example 1 with (i) a GFP expression plasmid as transfection control, (ii) the CRISPR/Cas9 Dph1 or Dph2 knock-out/integration system and (iii) knock-out/integration entities containing a scrambled gRNA to determine Cas9 independent integration frequencies. After determination of transfection efficiency, cells were seeded in 6-well plates. For quantification of homozygous knock-out events by DT 20000 cells were seeded and for quantification of integration events by PM or both events 40000 cells were seeded. RPMI medium was exchanged by RPMI medium containing DT or PM or both toxins 3 days after cell seeding. Exchange of medium was repeated every 2-3 days until all dead cells were removed from the plates and actively growing colonies could be detected via microscopic inspection. Thereafter (between day 12 and day 14 after start of toxin exposure), cells were washed 3 times with PBS and subsequently stained with ice cold methylene blue (0.2% in 50% EtOH). Methylene blue solution was subsequently removed and the plates were carefully washed under running water. Finally, cell colonies were counted under the microscope with a 5 mm grid foil.

DPH2 gene [2] = test: PM resistant colony count after DPH2 gene editing; details: DPH2 assay (integr. vs. k.o.); for # of PM resistant colonies (40,000 seeded cells): MCF7, individual samples A-D
Procedure: as §1, §2, §3
(§4) CRISPR/Cas module for targeted integration contains a puromycin (PM) resistance gene expression cassette without promoter to avoid transient expression. Thus, detection of integration of recombinant sequences into the genome was detected by determining sensitivity of cells towards PM. A concentration of […] PM (which quantitatively eliminates wildtype MCF7 cells) was applied to select MCF7 cells with stably integrated expression cassettes. PM-resistant colonies selected with the same procedure as described above for the DT selection and visualized and quantified (between 12 and 14 days after start of selection) in the same manner as described above for toxin resistant colonies. Number of PM resistant colonies obtained with non-target guide sequences (scrambled gRNA, FIG. 1) reflect the nonspecific integration background. […]

DPH1 gene [3] = test: DT resistant colony count after DPH1 gene editing (homozygous gene inactivation); details: DPH1 (gRNA length), TF eff. = 31%; for # of DT resistant colonies (20,000 seeded cells): MCF7, individual samples A-D
Procedure: as §1, §2, §3
MCF7 cells which have all chromosomal copies of DPH1 inactivated are DT resistant. Thus, occurrence and frequency of DTr colonies upon ZFN inflicted gene inactivation and/or cassette integration provides a measure for efficacy of inactivation of all gene copies. The ZFN recognition sequence ([…], cleavage site, SEQ ID NO: 10) are derived from NM_001383.3 (DPH1-wt) and were obtained from Sigma Aldrich. A PAC integration cassette for this position was obtained from OriGene. MCF7 cells were transfected as described above with (i) a GFP expression plasmid, (ii) the plasmid encoding DPH1-targeting ZFN and (iii) the DPH1-targeting PAC-integration cassette. After determination of transfection efficiency, cells were seeded in 6-well plates. For quantification of homozygous knock-out events (DTr) 20,000 cells were seeded, 40,000 cells for quantification of integration events (PMr) or double resistances. […]

DPH1 gene [4] = test: PM resistant colony count after DPH1 gene editing (PAC cassette integration); details: for # of PM resistant colonies (40,000 seeded cells): MCF7, individual samples A-D
Procedure: as §1, §2
as §3, with “For quantification of homozygous knock-out events by DT 20000 cells were seeded and for quantification of integration events by PM or both events 40000 cells were seeded.” left out
as §4, with “background. Increase in colonies (above nonspecific background) obtained with target-gene gRNAs which are PM-resistant but toxin sensitive reflect integration into just one target allele, leaving the other dph1 or dph2 allele unaffected.” for “background.”

DPH1 gene [5] = test: DT + PM double resistant colony count after DPH1 gene editing (integration with inactivation); details: DPH1 (gRNA length), TF eff. = 31%; for # of DT + PM resistant colonies (40,000 seeded cells): MCF7, individual samples A-D
Procedure: MCF7 cells (Brooks, et al. 1973) were originally obtained from ATCC (subsequently propagated in an in-house cell bank) and maintained in RPMI 1641 medium supplemented with 10% FCS, 2 mM L-Glutamine and penicillin/streptomycin at 37° C. and 85% humidity. For transfection of plasmids harboring gene-editing modules, 3,000,000 cells were seeded in a 10 cm diameter culture dish and cultivated at 37° C. and humidified 5% CO2. 24 h after seeding, cells were transfected with 20 μg total DNA using JetPEI (Polyplus) according to the manufacturer's protocol but with an N/P ratio of 6:1. Transfection efficiency was determined after 24 h by flow cytometry (FACS Calibur, BD biosciences) of cells that were transfected with a modified eGFP expression plasmid (Zhang, et al. 1996).
CRISPR/Cas module for targeted integration contains a puromycin (PM) resistance gene expression cassette without promoter to avoid transient expression. Thus, detection of integration of recombinant sequences into the genome was detected by determining sensitivity of cells towards PM. A concentration of 500 ng/μL PM (which quantitatively eliminates wildtype MCF7 cells) was applied to select MCF7 cells with stably integrated expression cassettes. PM-resistant colonies selected with the same procedure as described above for the DT selection and visualized and quantified (between 12 and 14 days after start of selection) in the same manner as described above for toxin resistant colonies. Number of PM resistant colonies obtained with non-target guide sequences (scrambled gRNA, FIG. 1) reflect the nonspecific integration background. Increase in colonies (above nonspecific background) obtained with target-gene gRNAs which are PM-resistant but toxin sensitive reflect integration into just one target allele, leaving the other dph1 or dph2 allele unaffected. PM resistant colonies that are also DT resistant have the expression cassette integrated into at least target allele and the other allele either inactivated or inactivated accompanied by yet another integration event.

MCF-7 cells [6] = test: DT resistant colony count of MCF-7 exposed to SCR7 and/or RS-1 during SpCas9-mediated DPH1 editing
Procedure: (§5) To evaluate and quantify the influence of DNA repair modulators on efficiency and specificity of gene editing, CRISPR/SpCAS9 and DPH1 targeting 20 mer gRNA was combined with compounds that modulate DNA repair mechanisms. The inhibitor Scr7 was applied either 4 hrs before transfection or 18 hrs after transfection of the gene editing modules until […] after transfection to inhibit DNA ligase IV.
SCR7 (1 μM final conc.) or RS-1 (8 μM final conc.) or SCR7+RS-1 (1 μM+8 μM final conc.) were added to MCF7 cells 4 hrs before transfection of the gene editing modules in the ‘early exposure’ setting. For ‘late exposure’ SCR7 (8 µM final conc.) or RS-1 (1 μM final conc.) were added to MCF7 cells 18 hrs after transfection. In both settings, cells were exposed to the modulators until 96 hr after transfection, i.e. ‘early exposure’ consisted of a treatment for a total of 100 hrs, ‘late exposure’ for a total of 78 hrs.
(§6) The system upon which to determine the effects of DNA repair modulators consisted of the CRISPR/SpCas9 modules with DPH1 20 mer gRNA, transfected into MCF7 cells and subjected to subsequent DT and PM selection as described in the previous Examples. Frequencies of DTr, PMr, and double-resistant colonies were recorded to reflect gene inactivation and cassette integration events.

MCF-7 cells [7] = test: PM resistant colony count of MCF-7 exposed to SCR7 and/or RS-1 during SpCas9-mediated DPH1 editing; details: for mean PMr colonies #seeded cells: 80,000: SpCas9 Dph1 gRNA (20 mer)
Procedure: as §5
SCR7 (1 μM final conc.) or RS-1 (8 μM final conc.) or SCR7+RS-1 (1 μM+8 μM final conc.) were added to MCF7 cells 4 hrs before transfection of the gene editing modules in the ‘early exposure’ setting. […]
as §6

MCF7 = test: Viability (Promega CTG) assay; details: 1 μM Scr7, 8 μM RS-1, 1 μM+8 μM combined
Procedure: The RAD51-stimulatory compound 1 (RS-1) was applied to modulate homologous recombination (HR) during gene editing. RS-1 (Sigma Aldrich) was dissolved in DMSO to generate a stock solution of 10 mg/ml, which was diluted in RPMI medium just before application to cells.
The DNA ligase IV inhibitor SCR7 was applied to modulate non-homologous end joining (NHEJ) during gene editing. SCR7 (Sigma) was dissolved in DMSO to generate a stock solution of 10 mg/ml, which was diluted in RPMI medium just before application to cells.

MCF-7 cells [8] = test: DT resistant colony count of MCF-7 exposed to SCR7 and/or RS-1 during SpCas9-mediated DPH1 editing; details: SpCas9 Dph1 gRNA (20 mer); compound added 18 hrs after transfection; RS-1 8 μM, SCR7 1 μM
[9] = listed as Dph2 CRISPR Cas9 gRNA
[10] = listed as 26 mer Dph1 CRISPR Cas9 gRNA
[11] = listed as 26 mer Dph1 CRISPR/Cas9 gRNA
[12] = DPH1 (gRNA length), TF eff. = 31%
[13] = compound added 4 hr before transfection
[14] = compound added 4 hrs before transfection
[15] = compound added 18 hr after transfection

With “20 mer SpCas9 Dph2 gRNA: Plasmids encoding SpCas9 and Dph2 gRNA (target GATGTTTAGCAGCCCTGCCG, SEQ ID NO: 02) plus donor plasmid” the “# of DT resistant colonies (40,000 seeded cells) (unheaded second sub-column: mean)” value (DPH2 gene [1]; MCF7) was 130, the “# of DT resistant colonies (40,000 seeded cells)” value (DPH2 gene [1]) was 162 and 227 (2×) and 215 and the “# of DT resistant colonies (40,000 seeded cells)” value (DPH2 gene [1]; [9]) was 162 and 227 (2×) and 215. The “# of PM resistant colonies (40,000 seeded cells) (unheaded second sub-column: mean)” value (DPH2 gene [2]; MCF7) was 1.5, the “# of PM resistant colonies (40,000 seeded cells)” value (DPH2 gene [2]) was 0 (2×) and 1 and 3 and the “# of PM resistant colonies (40,000 seeded cells)” value (DPH2 gene [2]; [9]) was 0 (2×) and 1 and 3.

For “26 mer SpCas9 Dph1 gRNA: Dph1 gRNA sequence variant GCGGAGCAGGGCGGCCGAGACGGCCC with SpCas9 (chemistry not given here)”, the “# of DT resistant colonies (20,000 seeded cells)” value (DPH1 gene [3]) was 161 and 155 and 176 and 187, the “# of DT resistant colonies (20,000 seeded cells)” value (DPH1 gene [3]; [10]) was 161 and 155 and 176 and the “# of DT resistant colonies (20,000 seeded cells)” value (DPH1 gene [3]; [11]) was 187. The “# of DT resistant colonies (20,000 seeded cells) (unheaded second sub-column: mean)” value (DPH1 gene [3]) was 170, the “# of PM resistant colonies (40,000 seeded cells)” value (DPH1 gene [4]; [12]) was 12 (2×) and 11 and 9 and the “# of PM resistant colonies (40,000 seeded cells)” value (DPH1 gene [4]; DPH1 (gRNA length), TF eff. = 31%, listed as 26 mer Dph1 CRISPR Cas9 gRNA) was 12 (2×) and 11. For the same compound, the “# of PM resistant colonies (40,000 seeded cells)” value (DPH1 gene [4]; DPH1 (gRNA length), TF eff. = 31%, listed as 26 mer Dph1 CRISPR/Cas9 gRNA) was 9, the “# of PM resistant colonies (40,000 seeded cells) (unheaded second sub-column: mean)” value (DPH1 gene [4]; [12]) was 11 and the “integration efficacy in dependence on gRNA length” value (DPH1 gene [4]; PMr colonies) was “Targeted integration clearly above background was observed”. For the same compound, the “# of DT + PM resistant colonies (40,000 seeded cells)” value (DPH1 gene [5]) was 0 (2×) and 1 (2×), the “# of DT + PM resistant colonies (40,000 seeded cells)” value (DPH1 gene [5]; [10]) was 0 (2×) and 1 and the “# of DT + PM resistant colonies (40,000 seeded cells)” value (DPH1 gene [5]; [11]) was 1. The “# of DT + PM resistant colonies (40,000 seeded cells) (unheaded second sub-column: mean)” value (DPH1 gene [5]) was 1.

With `O=C(Nc1ccc(Br)cc1)c1ccc(Br)c(S(=O)(=O)NCc2ccccc2)c1` [RS-1, RAD51-stimulatory compound 1] the “mean DTr colonies #seeded cells: 40,000” value (MCF-7 cells [6]; SpCas9 Dph1 gRNA (20 mer), compound added 4 hrs before transfection, RS-1 8 μM, SCR7 1 μM) was 201.5, the “% DT resistant colonies relative to untreated control” value (MCF-7 cells [6]; [13]) was 100% and the “gRNA specific DT-r colonies (gRNA-scRNA)” value (MCF-7 cells [6]; [14]) was 201.5. The “% DT resistant colonies relative to untreated control” value (MCF-7 cells [6]; [15]) was 100%, the “Mean DT resistant colonies (4 × 40.000 seeded cells)” value (MCF-7 cells [6]; editing entity SpCas9-scRNA, compound added 4 hrs before transfection) was 0 and the “mean PMr colonies #seeded cells: 80,000” value (MCF-7 cells [7]; compound added 4 hrs before transfection, RS-1 8 μM, SCR7 1 μM) was 14. The “mean PMr colonies #seeded cells: 80,000” value (MCF-7 cells [7]; compound added 18 hrs after transfection, RS-1 8 μM, SCR7 1 μM) was 15.3, the “% PMr relative to DTr colonies” value (MCF-7 cells [7]; SpCas9 Dph1 gRNA, compound added 18 hrs after transfection, RS-1 8 μM, SCR7 1 μM) was 3.0% and the “% PM resistant colonies relative to untreated control” value (MCF-7 cells [7]; [13]) was 165%*. The “gRNA specific PM-r colonies (gRNA-scRNA)” value (MCF-7 cells [7]; [14]) was 10.2, the “% PM resistant colonies relative to untreated control” value (MCF-7 cells [7]; [15]) was 76% and the “effect on the growth or viability of MCF7 cells at the applied dose” value (MCF7) was “no effect on the growth or viability; also recorded: does not inflict growth inhibitory or toxic effects”. For the same compound, the “mean DTr colonies #seeded cells: 40,000” value (MCF-7 cells [8]) was 512.5.
